Experimental data published in US10792301B2, “Therapeutic polysaccharide midi-GAGR and related materials and methods” (priority 2015, dated 2020).

Tests used:
[1] = system: Differentiated dopaminergic PC12 cells; experiment: LIVE/DEAD viability of differentiated PC12 cells exposed to 6-OHDA; assay type: cell-based; details: 1 μM for 6 h, then 30 μM 6-OHDA for 24 h
Protocol: Differentiated dopaminergic PC12 cells and primary mouse embryonic cortical neurons (E17, DIV14) were treated with mock (H2O) or 1 μM of dextran, alginate, HA-GAGR or midi-GAGR for 6 h and insulated by oxidative stressors (30 μM 6-OHDA [PC12] and 10 μM amyloid β peptide [cortical neurons]) for 24 h.

[2] = system: phosphorylated CREB in differentiated PC12 cells; experiment: Nuclear p-CREB immunostaining in PC12 cells; assay type: cell-based; details: 1 μM, 24 h
Protocol: (§1) Differentiated PC12 cells and mouse embryonic cortical neurons (E17, DIV14) were treated with mock, dextran, alginate, HA-GAGR or midi-GAGR (1 μM) for 24 h and fixed in 3.7% paraformaldehyde. The fixed cells and neurons were immunostained with antibodies against α-tubulin and phosopho-CREB (p-CREB) along with DAPI (nucleus).

[3] = system: phosphorylated CREB in mouse embryonic cortical neurons; experiment: Nuclear p-CREB immunostaining in cortical neurons (Example 2); assay type: cell-based; details: 1 μM, 24 h
Protocol: as §1

[4] = target: T1, FGFR1 (Mus musculus, UniProt P16092); experiment: Affinity chromatography with midi-GAGR- or dextran-conjugated sepharose beads, FGFR1 immunoblot; assay type: binding; details: brain extract in 0.5% Igepal PMEE buffer
T1 construct: Whole mouse brains were homogenized for cytosol extraction in PMEE buffer containing 1% Igepal CA-630; from tissue; host or cells: mouse cerebral cortex / whole brain detergent extract
Protocol: To examine whether midi-GAGR interacts with synaptosomal FGFR1 or not, an affinity chromatography using midi-GAGR-conjugated sepharose beads was performed. Either midi-GAGR or dextran were conjugated to epoxy-activated sepharose 6B that is a pre-activated medium that can be conjugated to the hydroxyl groups of carbohydrates. Briefly, 200 μL of 7.4 mM midi-GAGR or 5 kD dextran in H2O was mixed with 200 μL of epoxy-activated sepharose beads in a microtube and incubated on a rotator (16 h, 37° C.). The mixture was spun down at 1,000×g (10 min) to separate bead-bound polysaccharides from unbound. Unoccupied active sites on beads were blocked by incubation (4 h, 45° C.) in 1 M ethanolamine (pH 8). Then, beads were washed with three cycles of alternating pH solutions—0.1 M acetate buffer (pH 4) and 0.1 M Tris-HCl buffer (pH 8), both containing 0.5 M NaCl. The conjugation of polysaccharides to beads was confirmed by phenol-sulfuric acid colorimetry. Cerebral cortices were dissected from four female mice (BALB/C, 8 wks old) and homogenized with a hand grinder in 1 mL of PMEE homogenization buffer plus 1% Igepal CA-630 and protease inhibitors (PIs). The homogenate was centrifuged at 1,000×g (10 min) to remove nuclei and undisrupted cells. The supernatant was subjected to 5-6 strokes through 27 G needle. Post-nuclear supernatant was centrifuged at 1,000×g (15 min). […]

T1 sequence (P16092 22-822): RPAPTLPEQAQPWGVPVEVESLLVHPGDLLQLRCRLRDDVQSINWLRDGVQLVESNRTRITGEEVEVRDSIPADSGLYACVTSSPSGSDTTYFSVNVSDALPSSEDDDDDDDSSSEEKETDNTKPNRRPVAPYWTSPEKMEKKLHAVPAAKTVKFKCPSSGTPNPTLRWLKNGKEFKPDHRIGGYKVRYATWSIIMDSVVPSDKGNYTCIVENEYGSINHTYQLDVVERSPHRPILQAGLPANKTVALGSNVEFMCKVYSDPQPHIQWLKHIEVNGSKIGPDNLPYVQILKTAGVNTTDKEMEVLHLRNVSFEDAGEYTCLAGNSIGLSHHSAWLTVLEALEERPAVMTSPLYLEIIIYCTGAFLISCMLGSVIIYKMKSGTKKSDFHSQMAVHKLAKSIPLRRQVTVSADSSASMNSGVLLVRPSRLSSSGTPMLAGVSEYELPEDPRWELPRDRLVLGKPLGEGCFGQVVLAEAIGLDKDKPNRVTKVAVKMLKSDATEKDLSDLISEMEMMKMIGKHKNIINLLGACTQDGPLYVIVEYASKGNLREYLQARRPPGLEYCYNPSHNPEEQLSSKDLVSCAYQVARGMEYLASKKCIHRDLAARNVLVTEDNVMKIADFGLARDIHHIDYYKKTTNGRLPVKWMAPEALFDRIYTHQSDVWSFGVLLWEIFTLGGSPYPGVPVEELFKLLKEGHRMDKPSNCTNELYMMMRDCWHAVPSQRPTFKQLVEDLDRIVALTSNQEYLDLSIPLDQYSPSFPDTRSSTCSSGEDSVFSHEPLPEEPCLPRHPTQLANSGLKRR

dextran
6-OHDA-induced cell death [1]: did not | increase of the levels of nuclear p-CREB [2]: not significantly increased | increase of the levels of nuclear p-CREB [3]: not significantly increased | FGFR1 eluted from polysaccharide-conjugated beads [4]: not from dextran beads
